# US20240124483A1, “Methods for the Treatment of Fibrotic Disease” (SHY Therapeutics, LLC, priority 2021, published 2024)
# pIC50: −log10 of the molar value. Read-outs that look alike come from different tables or passages of the source.
# Assays:
# KRas G12C mutant = KRas G12C mutant (Homo sapiens (Human), UniProt P01116, G12C); assay: Ras GTP Binding Domain Inhibition Assay, KRas G12C mutant
# Experimental: (§1) A Ras Superfamily Activity Assay (as disclosed in International Application No. PCT/US2018/038613, filed Jun. 20, 2018, which is incorporated by reference in its entirety) was used as a specific assay to evaluate compounds against the following for the following Ras Superfamily proteins: KRas wild type, KRas Q61H mutant, KRas G12C mutant, KRas G12D mutant, Rac-1, and Rho-A.
# (§2) Buffer-I: • 25 mM Tris-HCl, pH 7.4 • 27 mM KCl • 137 mM NaCl • 1 mM MgCl2 • 1 mM DTT
# (§3) Buffer-II: • 50 mM Tris-HCl, pH 7.0 • 1 mM MgCl2 • 1 mM DTT
# (§4) The small GTPases proteins: KRas wild type. KRas Q61H mutant, KRas G12C mutant, KRas G12D mutants, Rac-1, and Rho-A were expressed as His-tagged proteins. In addition, the Guanosine nucleotide Exchange Factor (GEF) Sos protein (residues 556-1049) was expressed as a His-tagged protein. In cells, the guanine nucleotide exchange factor Sos protein promotes activation of Ras proteins by stimulating an exchange of GDP for GTP. The inclusion of Sos to the Ras GTP binding domain inhibition assay may be considered as an alternative representation of physiological cellular conditions for evaluating the inhibitory activity of some of the tested small molecules.
# (§5) For the assay, all purified small GTPases proteins were diluted in Buffer-I or Buffer-II to a final concentration of 10-30 μg/mL. 200 μL of each diluted protein was added to a nickel-coated 96-well plate and incubated overnight at 4° C. Then the protein solution was discarded and 200 μL of Buffer-I or Buffer-II was added to each well in the presence of 1% DMSO. Compounds to be tested were added to the protein-coated wells at final concentration of 20 μM, and incubated for 3 hours at room temperature with and without 10-30 μg/mL of Sos added to the final hour of the incubation. When performing IC50 measurements a serial dilution of all tested concentrations was added. Then Cy3-GTP or Cy5-GTP was added to each well to a final concentration of 100 nM. The labeled GTP was incubated for 45 minutes at room temperature. Following GTP incubation, wells were washed 3× in Buffer-I or Buffer-II and 200 μL of Buffer-I or Buffer-II was added to each well. Following washes, the amount of bound labeled-GTP was measured using a SpectraMax M3 (Molecular Devices).
# KRas wild type = KRas wild type (Homo sapiens (Human), UniProt P01116); assay: Ras GTP Binding Domain Inhibition Assay, KRas wild type
# Experimental: as §1, §2, §3, §4, §5
# Rac-1 = Rac-1 (Homo sapiens (Human), UniProt P63000); assay: Ras GTP Binding Domain Inhibition Assay, Rac-1
# Experimental: as §1, §2, §3, §4, §5
# Smad2/3 phosphorylation = assay: Phospho-Smad2/3 Inhibition Assay in Panc-1 (western blot); format: cell-based; settings: Homo sapiens; for inhibition at 10 µM: 3 hours, PANC-1 stimulated with 10 ng/ml TGF-b1 for 1 hour, read-out: % inh of Smad2/3 phosphorylation in PANC-1
# Experimental: Cell lines: Human tumor-derived pancreatic cancer cell line Panc-1 and mouse muscle myoblast C2C12 were purchased from American Type Culture Collection and grown in complete DMEM-High Glucose, supplemented with penicillin (100 U/mL), streptomycin (100 μg/mL), and 10% heat-inactivated FBS at 37° C. in a humidified incubator with 5% CO2.
# Method: Cells were plated at 350000 cells/well density in a 12-well plate, allowed 3 hours to adhere to the plate, then starved in the appropriate medium in the presence of 0.5% FBS overnight. The small molecules to be tested were added to the cells in the final concentration of 10 μM in the presence of 0.3% DMSO for 3 hours incubation at 37° C. For IC50 value determination, serial dilutions of compounds were added to cells under the same conditions. Next, Panc-1 cells were stimulated with 10 ng/ml TGF-b1 for 1 hour, and C2C12 cells were stimulated with 10 ng/ml TGF-b1 for 20 minutes (recombinant human TGF-b1, R&D Systems). After stimulation cells were lysed with lysis buffer containing 1% Triton X-100, EDTA, and Halt™ Protease & Phosphatase Inhibitor Cocktail (Thermo Scientific). Protein concentration was assessed by BCA protein assay (Thermo Scientific). Phosphorylation level of Smad2/Smad3 was determined by western blot.
# Western blot protocol: Equal amounts of protein (15-50 μg) were separated by SDS-PAGE and transferred to nitrocellulose membranes (Invitrogen by Thermo Fisher Scientific). The membrane was stained with Ponceau S Stain (Boston BioProducts) to verify uniform protein loading. Membranes were blocked with 10% milk and phosphorylation levels of Smad2/Smad3 were assessed by incubating overnight at 4° C. with the following antibodies: Phospho-Smad2 (Ser465/467) and Phosph-Smad3 (Ser423/425), both from Cell Signaling Technology. Then the membranes were incubated with HRP-conjugated secondary antibody (Jackson Immunoresearch, West Grove, PA). Bands were incubated in Amersham ECL Prime Western Blotting Detection Reagent (GE Healthcare) and visualized using the ChemiDoc MP imaging system (Bio-Rad).
# KRas G12D mutant = KRas G12D mutant (Homo sapiens (Human), UniProt P01116, G12D); assay: Ras GTP Binding Domain Inhibition Assay, KRas G12D mutant; settings: for inhibition at 20 µM: Table 7; for KRas G12D mutant + SOS: % inh. / KRas G12D mutant: % inh.: 20 uM, Table 8
# Experimental: as §1, §2, §3, §4, §5
# [1] = + SOS, read-out: KRas G12C mutant + SOS: % inh.
# [2] = without SOS, read-out: KRas G12C mutant: % inh.
# [3] = + SOS, read-out: KRas wild type + SOS: % inh.
# [4] = without SOS, read-out: KRas wild type: % inh.
# [5] = without SOS, read-out: Rac-1: % inh.
# [6] = + SOS, read-out: KRas G12D mutant + SOS: % inh.
# [7] = without SOS, read-out: KRas G12D mutant: % inh.
# [8] = + SOS, read-out: Rac-1 + SOS: % inh.
# KRas wild type, sequence (P01116 other isoform, or with tags, fused parts or gaps): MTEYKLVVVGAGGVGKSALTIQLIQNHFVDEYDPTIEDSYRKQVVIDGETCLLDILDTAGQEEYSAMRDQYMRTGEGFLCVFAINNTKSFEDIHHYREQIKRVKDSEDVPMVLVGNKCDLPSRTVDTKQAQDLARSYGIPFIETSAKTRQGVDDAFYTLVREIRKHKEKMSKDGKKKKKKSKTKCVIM
# KRas G12D mutant, sequence (P01116 other isoform, or with tags, fused parts or gaps G12D): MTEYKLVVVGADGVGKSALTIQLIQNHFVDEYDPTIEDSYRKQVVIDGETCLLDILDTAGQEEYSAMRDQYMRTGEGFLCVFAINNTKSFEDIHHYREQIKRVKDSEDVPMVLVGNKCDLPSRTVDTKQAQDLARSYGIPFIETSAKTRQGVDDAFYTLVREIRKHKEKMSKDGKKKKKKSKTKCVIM
# KRas G12C mutant, sequence (P01116 other isoform, or with tags, fused parts or gaps G12C): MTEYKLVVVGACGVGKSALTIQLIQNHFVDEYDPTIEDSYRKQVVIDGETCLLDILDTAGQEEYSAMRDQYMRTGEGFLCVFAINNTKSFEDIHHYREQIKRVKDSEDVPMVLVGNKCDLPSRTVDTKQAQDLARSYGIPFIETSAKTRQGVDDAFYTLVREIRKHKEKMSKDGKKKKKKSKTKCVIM
SMILES,inhibition at 20 µM (KRas G12C mutant; [1]),inhibition at 20 µM (KRas G12C mutant; [2]),inhibition at 20 µM (KRas wild type; [3]),inhibition at 20 µM (KRas wild type; [4]),inhibition at 20 µM (Rac-1; [5]),inhibition at 10 µM (Smad2/3 phosphorylation),inhibition at 20 µM (KRas G12D mutant; [6]),KRas G12D mutant + SOS: % inh. (KRas G12D mutant; + SOS),inhibition at 20 µM (KRas G12D mutant; [7]),KRas G12D mutant: % inh. (KRas G12D mutant; without SOS),inhibition at 20 µM (Rac-1; [8]),"pIC50 (Smad2/3 phosphorylation; PANC-1, TGF-b1 stimulated)"
"COc1cc(Nc2nc(-c3nccn3C)nc3sc(-c4ccn(C(C)C)n4)c(C)c23)ncn1 [Compound 19, 6-(1-Isopropyl-1H-pyrazol-3-yl)-N-(6-methoxypyrimidin-4-yl)-5-methyl-2-(1-methyl-1H-imidazol-2-yl)thieno[2,3-d]pyrimidin-4-amine]",76 to 100%,46 to 75%,76 to 100%,76 to 100%,46 to 75%,76 to 100%,46 to 75%,C (C = 46-75% inhibition),26 to 45%,B (B = 26-45% inhibition),,
"COc1cccc(-c2sc3nc(-c4nccn4C)nc(N[C@H]4C[C@H](OC)C4)c3c2C)c1F [Compound 42, 6-(2-Fluoro-3-methoxyphenyl)-N-((1r,3r)-3-methoxycyclobutyl)-5-methyl-2-(1-methyl-1H-imidazol-2-yl)thieno[2,3-d]pyrimidin-4-amine]",76 to 100%,46 to 75%,76 to 100%,76 to 100%,0%,1 to 25%,76 to 100%,D (D = 76-100% inhibition),26 to 45%,B (B = 26-45% inhibition),,
"COCCn1ccc(-c2sc3nc(-c4nccn4C)nc(N[C@@H]4CC[C@H](OC)C4)c3c2C)n1 (racemic) [Compound 39, rac-N-((1R,3S)-3-Methoxycyclopentyl)-6-(1-(2-methoxyethyl)-1H-pyrazol-3-yl)-5-methyl-2-(1-methyl-1H-imidazol-2-yl)thieno[2,3-d]pyrimidin-4-amine]",76 to 100%,76 to 100%,76 to 100%,76 to 100%,26 to 45%,0%,76 to 100%,D (D = 76-100% inhibition),46 to 75%,C (C = 46-75% inhibition),,
"COc1cc(-c2sc3nc(-c4nccn4C)nc(N[C@@H]4CC[C@H](OC)C4)c3c2-c2ccccc2)ccn1 (racemic) [Compound 44, rac-N-((1R,3S)-3-Methoxycyclopentyl)-6-(2-methoxypyridin-4-yl)-2-(1-methyl-1H-imidazol-2-yl)-5-phenylthieno[2,3-d]pyrimidin-4-amine]",76 to 100%,26 to 45%,76 to 100%,46 to 75%,0%,76 to 100%,46 to 75%,C (C = 46-75% inhibition),76 to 100%,D (D = 76-100% inhibition),,
"CO[C@@H]1CC[C@H](Nc2nc(-c3nccn3C)nc3sc(-c4ccn(C(C)C)n4)c(-c4ccccc4)c23)C1 (single isomer, unassigned) [Compound 11]",76 to 100%,46 to 75%,76 to 100%,46 to 75%,1 to 25%,46 to 75%,46 to 75%,C (C = 46-75% inhibition),46 to 75%,C (C = 46-75% inhibition),26 to 45%,
"COCCNc1nc(-c2nccn2C)nc2sc(-c3cccc(OC)c3Cl)c(-c3ccccc3)c12 [Compound 9, 6-(2-Chloro-3-methoxyphenyl)-N-(2-methoxyethyl)-2-(1-methyl-1H-imidazol-2-yl)-5-phenylthieno[2,3-d]pyrimidin-4-amine]",76 to 100%,26 to 45%,76 to 100%,46 to 75%,46 to 75%,76 to 100%,46 to 75%,C (C = 46-75% inhibition),46 to 75%,C (C = 46-75% inhibition),46 to 75%,5.30 to 6.00
"COCCCn1c(-c2nccn2C)nc2sc(-c3ccn(C(C)C)n3)c(-c3ccccc3)c2c1=O [Compound 36, 6-(1-Isopropyl-1H-pyrazol-3-yl)-3-(3-methoxypropyl)-2-(1-methyl-1H-imidazol-2-yl)-5-phenylthieno[2,3-d]pyrimidin-4(3H)-one]",1 to 25%,0%,1 to 25%,1 to 25%,0%,0%,0%,0 (0 = 0% inhibition),0%,0 (0 = 0% inhibition),,
"COCC1CN(c2nc(-c3nccn3C)nc3sc(-c4ccn(C(C)C)n4)c(C)c23)CCO1 (racemic) [Compound 15, 4-(6-(1-Isopropyl-1H-pyrazol-3-yl)-5-methyl-2-(1-methyl-1H-imidazol-2-yl)thieno[2,3-d]pyrimidin-4-yl)-2-(methoxymethyl)morpholine]",76 to 100%,46 to 75%,76 to 100%,76 to 100%,76 to 100%,26 to 45%,76 to 100%,D (D = 76-100% inhibition),76 to 100%,D (D = 76-100% inhibition),,
"COC1CCN(c2nc(-c3nccn3C)nc3sc(-c4ccn(C)n4)c(-c4ccccc4)c23)CC1 [Compound 6, 4-(4-Methoxypiperidin-1-yl)-2-(1-methyl-1H-imidazol-2-yl)-6-(1-methyl-1H-pyrazol-3-yl)-5-phenylthieno[2,3-d]pyrimidine]",46 to 75%,26 to 45%,26 to 45%,0%,26 to 45%,0%,26 to 45%,B (B = 26-45% inhibition),26 to 45%,B (B = 26-45% inhibition),26 to 45%,
